Source: patent US20160222014A1, “COMPOUNDS FOR REGULATING FAK AND/OR SRC PATHWAYS” (ASANA BIOSCIENCES, LLC, priority 2013, published 2016)
Blank lines part the entries; values can stand above or below the compound they belong to.

Key:
Format in all cases: biochemical
AURKB (Aurora B) enzyme = target: T1, AURKB (Aurora B) enzyme (Homo sapiens, UniProt Q96GD4); test: Aurora B HTRF assay; conditions: read-out: AuroraB IC50
T1 construct: purchased Invitrogen PVR 130
Outline: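 HTRF kinase assay with 5 nM Aurora B and 50 nM ULight-PLK (Ser137) peptide, with a reagent at 30 μM final; 1 h at rt. Reaction stopped with EDTA, and phospho-peptide detected with 2 nM Eu-anti-P-PLK(Ser137) antibody after 1 h at rt, read as HTRF.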

Recombinant Src enzyme = target: T2, Recombinant Src enzyme (Homo sapiens, UniProt P12931); test: Src HTRF assay
T2 construct: purchased Millipore 14-326; host or cells: Sf21 insect cells
T2 sequence (P12931 whole entry): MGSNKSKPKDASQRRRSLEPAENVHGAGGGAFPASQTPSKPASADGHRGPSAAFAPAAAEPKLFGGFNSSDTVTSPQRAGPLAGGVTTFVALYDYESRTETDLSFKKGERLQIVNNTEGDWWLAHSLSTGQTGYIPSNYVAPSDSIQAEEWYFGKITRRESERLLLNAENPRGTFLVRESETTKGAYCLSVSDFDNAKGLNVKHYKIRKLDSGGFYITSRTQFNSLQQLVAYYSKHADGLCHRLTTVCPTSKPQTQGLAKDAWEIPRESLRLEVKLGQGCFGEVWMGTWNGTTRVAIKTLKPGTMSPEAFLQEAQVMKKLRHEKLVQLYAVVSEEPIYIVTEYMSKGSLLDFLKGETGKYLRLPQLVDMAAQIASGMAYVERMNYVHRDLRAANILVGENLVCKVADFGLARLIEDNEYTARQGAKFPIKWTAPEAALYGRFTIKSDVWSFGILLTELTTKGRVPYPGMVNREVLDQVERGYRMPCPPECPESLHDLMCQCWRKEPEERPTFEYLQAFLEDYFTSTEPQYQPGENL
Description: Enzyme assay buffer, supplements, and compounds were prepared as described in the FAK HTRF assay.
Recombinant Src enzyme expressed in Sf21 insect cells was obtained (Millipore, Cat No. 14-326, Lot # D8CN006U-K). A 35 μM stock was used at a final concentration of 5 nM in the assay.
Tyk2 synthetic peptide-Biotinylated-N-terminal tag-[…]
A custom made substrate, a Tyk2 synthetic peptide, biotinylated with an N-terminal tag was obtained (Biopeptide and Sigma, Cat. No. 14918001 VC80021). A 100 μM stock was used at a final concentration of 0.5 μM in the assay.
A 10 mM stock in 100 μL enzyme assay buffer pH7.4 was prepared freshly and used at a final concentration of 10 μM in the assay.
Dasatinib (Bristol-Myers Squibb)
The assay procedure was the same as discussed above.

recombinant human FAK1 = target: T3, recombinant human FAK1 (Homo sapiens, UniProt Q05397); test: FAK1 HTRF assay
T3 construct: fused on or other part: N-terminal 6xHis tag
T3 sequence (Q05397 422-680 limits assumed): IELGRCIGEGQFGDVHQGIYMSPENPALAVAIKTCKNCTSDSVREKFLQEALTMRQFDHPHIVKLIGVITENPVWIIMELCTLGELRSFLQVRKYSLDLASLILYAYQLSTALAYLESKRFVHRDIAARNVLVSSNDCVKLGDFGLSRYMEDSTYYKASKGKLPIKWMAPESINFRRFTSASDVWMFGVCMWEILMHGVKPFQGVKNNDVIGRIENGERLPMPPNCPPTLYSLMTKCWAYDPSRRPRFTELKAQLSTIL
Outline: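 His-tagged human FAK1 (residues 692–end, Sf9-expressed), 10 nM final, with 0.5 μM biotinylated gastrin-precursor Tyr87 peptide and a 10 μM final reagent in pH 7.4 buffer, 45 min at rt. Detection used Eu anti-pTyr antibody plus SA-APC (665/620 nm). Compounds top concentration 10 μM; IC50 from % inhibition.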

T1 sequence (Q96GD4 whole entry): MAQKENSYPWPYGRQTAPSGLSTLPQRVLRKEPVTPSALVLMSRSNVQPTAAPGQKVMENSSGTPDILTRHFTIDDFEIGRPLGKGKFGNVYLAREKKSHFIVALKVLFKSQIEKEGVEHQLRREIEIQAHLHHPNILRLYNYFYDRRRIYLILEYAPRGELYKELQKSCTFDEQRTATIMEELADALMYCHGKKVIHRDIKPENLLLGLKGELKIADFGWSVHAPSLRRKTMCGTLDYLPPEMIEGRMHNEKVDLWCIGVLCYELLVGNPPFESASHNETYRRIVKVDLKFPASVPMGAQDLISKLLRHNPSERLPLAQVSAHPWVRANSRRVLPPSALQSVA

- IC50 (AURKB (Aurora B) enzyme): > 1000 nM
- IC50 (Recombinant Src enzyme): > 1000 nM
- IC50 (recombinant human FAK1): > 1000 nM
SMILES: CN(c1ccccc1C(=O)N1CC(C)(C)c2cnc(Nc3ccc(N4CCNCC4)cc3)nc21)S(C)(=O)=O [Example 528]

- IC50 (AURKB (Aurora B) enzyme): > 1000 nM
- IC50 (Recombinant Src enzyme): > 1000 nM
SMILES: COc1cc(N2CCC(N(C)C)CC2)ccc1Nc1ncc2ccn(Cc3ccccc3N(C)S(C)(=O)=O)c2n1 [Example 628]

- IC50 (AURKB (Aurora B) enzyme): > 1000 nM
- IC50 (Recombinant Src enzyme): > 1000 nM
- IC50 (recombinant human FAK1): < 20 nM
SMILES: COc1cc(N2CCNCC2)ccc1Nc1cc2c(cn1)C(C)(C)CN2S(=O)(=O)c1cccc2cccnc12 [Example 635]

- IC50 (AURKB (Aurora B) enzyme): < 20 nM
- IC50 (Recombinant Src enzyme): < 20 nM
- IC50 (recombinant human FAK1): < 20 nM
SMILES: COc1cc(Nc2ncc3ccn(Cc4ccccc4N(C)S(C)(=O)=O)c3n2)ccc1N1CCN(C)CC1 [Example 429]

- IC50 (AURKB (Aurora B) enzyme): < 20 nM
- IC50 (Recombinant Src enzyme): < 20 nM
- IC50 (recombinant human FAK1): < 20 nM
SMILES: Cc1cc(Nc2ncc3ccn(S(=O)(=O)c4ccccc4C#N)c3n2)ccc1N1CCNCC1 [Example 212]

- IC50 (AURKB (Aurora B) enzyme): > 1000 nM
- IC50 (Recombinant Src enzyme): > 1000 nM
SMILES: COc1cc(N2CCNCC2)ccc1Nc1cc2c(ccn2Cc2cccnc2N(C)S(C)(=O)=O)cn1 [Example 366]

- IC50 (AURKB (Aurora B) enzyme): > 1000 nM
- IC50 (Recombinant Src enzyme): > 1000 nM
- IC50 (recombinant human FAK1): > 1000 nM
SMILES: CN(c1ncccc1CN1CC(C)(C)c2cnc(Nc3ccc(N4CCNCC4)cc3)nc21)S(C)(=O)=O [Example 437]

- IC50 (AURKB (Aurora B) enzyme): > 1000 nM
- IC50 (Recombinant Src enzyme): > 1000 nM
- IC50 (recombinant human FAK1): < 20 nM
SMILES: COc1cc(N2CCN(C)CC2)ccc1Nc1ncc2c(n1)N(S(=O)(=O)c1cccc3cccnc13)CC2(C)C [Example 504]

- IC50 (AURKB (Aurora B) enzyme): > 1000 nM
- IC50 (Recombinant Src enzyme): > 1000 nM
SMILES: CC1(C)CN(S(=O)(=O)c2ccccc2C#N)c2cc(Nc3ccc(N4CCNCC4)cc3)ncc21 [Example 532]

- IC50 (AURKB (Aurora B) enzyme): < 20 nM
- IC50 (Recombinant Src enzyme): < 20 nM
- IC50 (recombinant human FAK1): < 20 nM
SMILES: O=S(=O)(c1cccc2ccccc12)n1ccc2cnc(Nc3ccc(N4CCNCC4)cc3)nc21 [Example 219]

- IC50 (AURKB (Aurora B) enzyme): < 20 nM
- IC50 (Recombinant Src enzyme): > 1000 nM
SMILES: CN(c1ncccc1Cn1ccc2cnc(Nc3ccc(N4CCNCC4=O)cc3)nc21)S(C)(=O)=O [Example 102]

- IC50 (Recombinant Src enzyme): > 1000 nM
- IC50 (recombinant human FAK1): < 20 nM
SMILES: COc1cc(N2CCNCC2)ccc1Nc1ncc2ccn(S(=O)(=O)c3cc(C)cc4cccnc34)c2n1 [Example 360]

- IC50 (Recombinant Src enzyme): < 20 nM
- IC50 (recombinant human FAK1): < 20 nM
SMILES: CN(c1ccccc1Cn1ccc2cnc(Nc3ccc(N4CCN5CCCC5C4)cc3)nc21)S(C)(=O)=O (stereo not shown) [Example 496]

- IC50 (AURKB (Aurora B) enzyme): < 20 nM
- IC50 (Recombinant Src enzyme): < 20 nM
- IC50 (recombinant human FAK1): < 20 nM
SMILES: Cc1cc(Nc2ncc3ccn(S(=O)(=O)c4cccc5cccnc45)c3n2)ccc1N1CCNCC1 [Example 196]

- IC50 (Recombinant Src enzyme): < 20 nM
- IC50 (recombinant human FAK1): < 20 nM
SMILES: Cc1cc(Nc2ncc3ccn(Cc4ccccc4N(C)S(C)(=O)=O)c3n2)ccc1N1CCNCC1 [Example 447]

- IC50 (AURKB (Aurora B) enzyme): > 1000 nM
- IC50 (Recombinant Src enzyme): > 1000 nM
- IC50 (recombinant human FAK1): > 1000 nM
SMILES: CS(=O)(=O)N(CCN)c1ccccc1Cn1ccc2cnc(Nc3ccc(N4CCNCC4)cc3)nc21 [Example 558]

- IC50 (Recombinant Src enzyme): > 1000 nM
- IC50 (recombinant human FAK1): < 20 nM
SMILES: COc1cc(N2CCN(C)CC2)ccc1Nc1ncc2ccn(Cc3ccccc3N(C)S(C)(=O)=O)c2n1 [Example 424]

- IC50 (Recombinant Src enzyme): > 1000 nM
- IC50 (recombinant human FAK1): < 20 nM
SMILES: CN(C)C1CCN(c2ccc(Nc3cc4c(cn3)C(C)(C)CN4S(=O)(=O)c3cccc4cccnc34)cc2)CC1 [Example 611]

- IC50 (AURKB (Aurora B) enzyme): > 1000 nM
- IC50 (Recombinant Src enzyme): > 1000 nM
SMILES: O=S(=O)(c1cc(Cl)ccc1Cl)N1CC2(CC2)c2cnc(Nc3ccc(N4CCNCC4)cc3)nc21 [Example 510]

- IC50 (AURKB (Aurora B) enzyme): < 20 nM
- IC50 (Recombinant Src enzyme): > 1000 nM
- IC50 (recombinant human FAK1): < 20 nM
SMILES: COc1ccccc1S(=O)(=O)n1ccc2cnc(Nc3ccc(N4CCNCC4)cc3)cc21 [Example 343]

Second part, the compound before the results:

SMILES: COc1cc(N2CCOCC2)ccc1Nc1cc2c(ccn2S(=O)(=O)c2cccc3cccnc23)cn1 [Example 401]
- IC50 (AURKB (Aurora B) enzyme): < 20 nM
- IC50 (Recombinant Src enzyme): > 1000 nM
- IC50 (recombinant human FAK1): < 20 nM

SMILES: COc1cccc(Nc2ncc3ccn(S(=O)(=O)c4ccccc4C#N)c3n2)c1 [Example 178]
- IC50 (AURKB (Aurora B) enzyme): < 20 nM
- IC50 (Recombinant Src enzyme): > 1000 nM

SMILES: COc1cc(N2CCN[C@@H](C)C2)ccc1Nc1ncc2ccn(Cc3cccnc3N(C)S(C)(=O)=O)c2n1 [Example 629]
- IC50 (AURKB (Aurora B) enzyme): > 1000 nM
- IC50 (Recombinant Src enzyme): > 1000 nM

SMILES: O=S(=O)(c1cccc2cccnc12)n1ncc2cnc(Nc3ccc(N4CCC(O)CC4)cc3)cc21 [Example 345]
- IC50 (AURKB (Aurora B) enzyme): < 20 nM
- IC50 (Recombinant Src enzyme): > 1000 nM
- IC50 (recombinant human FAK1): < 20 nM

SMILES: CN(c1ncccc1Cn1ccc2cnc(Nc3ccc(N4CCOCC4)cn3)nc21)S(C)(=O)=O [Example 107]
- IC50 (AURKB (Aurora B) enzyme): < 20 nM
- IC50 (Recombinant Src enzyme): > 1000 nM

SMILES: CN(c1cccc(Cn2ccc3cnc(Nc4ccc5c(c4)CCC(=O)N5)nc32)c1)S(C)(=O)=O [Example 50]
- IC50 (AURKB (Aurora B) enzyme): < 20 nM
- IC50 (Recombinant Src enzyme): > 1000 nM

SMILES: CN(C)CCOc1cccc(Nc2cc3c(ccn3S(=O)(=O)c3ccccc3OC(F)(F)F)cn2)c1 [Example 126]
- IC50 (AURKB (Aurora B) enzyme): < 20 nM
- IC50 (Recombinant Src enzyme): > 1000 nM

SMILES: CC(=O)Nc1cccc(Nc2cc3c(cn2)cnn3S(=O)(=O)c2ccccc2OC(F)(F)F)c1 [Example 86]
- IC50 (AURKB (Aurora B) enzyme): > 1000 nM
- IC50 (Recombinant Src enzyme): > 1000 nM

SMILES: CC(=O)Nc1ccc(Nc2cc3c(cn2)cnn3S(=O)(=O)c2cccc3cccnc23)cc1 [Example 315]
- IC50 (AURKB (Aurora B) enzyme): < 20 nM
- IC50 (Recombinant Src enzyme): > 1000 nM

SMILES: O=S(=O)(c1cccc2cccnc12)n1ncc2cnc(Nc3ccc(N4CC5CC4CN5)cc3)cc21 (stereo not shown) [Example 383]
- IC50 (AURKB (Aurora B) enzyme): < 20 nM
- IC50 (Recombinant Src enzyme): > 1000 nM

SMILES: FC(F)Oc1ccccc1Cn1ccc2cnc(Nc3ccc4ncsc4c3)cc21 [Example 20]
- IC50 (AURKB (Aurora B) enzyme): > 1000 nM
- IC50 (Recombinant Src enzyme): > 1000 nM

SMILES: COc1cc(N2CCC(N(C)C)CC2)ccc1Nc1ncc2ccn(Cc3cccnc3N(C)S(C)(=O)=O)c2n1 [Example 634]
- IC50 (AURKB (Aurora B) enzyme): > 1000 nM
- IC50 (Recombinant Src enzyme): > 1000 nM

SMILES: COc1ccccc1S(=O)(=O)n1ccc2cnc(Nc3cncnc3)nc21 [Example 146]
- IC50 (Recombinant Src enzyme): > 1000 nM
- IC50 (recombinant human FAK1): > 1000 nM

SMILES: Cc1nn(S(=O)(=O)c2ccccc2OC(F)(F)F)c2cc(Nc3ccc4c(c3)CCC(=O)N4)ncc12 [Example 90]
- IC50 (AURKB (Aurora B) enzyme): < 20 nM
- IC50 (Recombinant Src enzyme): > 1000 nM

SMILES: O=C1CCc2cc(Nc3ncc4ccn(S(=O)(=O)c5cccc6ccccc56)c4n3)ccc2N1 [Example 223]
- IC50 (Recombinant Src enzyme): < 20 nM
- IC50 (recombinant human FAK1): < 20 nM

SMILES: CN1C(=O)CCc2cc(Nc3ncc4ccn(Cc5cccnc5N(C)S(C)(=O)=O)c4n3)ccc21 [Example 136]
- IC50 (AURKB (Aurora B) enzyme): < 20 nM
- IC50 (Recombinant Src enzyme): < 20 nM
- IC50 (recombinant human FAK1): < 20 nM

SMILES: C[C@H]1CN(c2ccc(Nc3ncc4ccn(Cc5ccccc5NS(=O)(=O)CCCF)c4n3)c(F)c2)CCN1 [Example 729]
- IC50 (Recombinant Src enzyme): > 1000 nM
- IC50 (recombinant human FAK1): > 1000 nM

SMILES: O=c1[nH]c2ccc(Nc3ncc4ccn(S(=O)(=O)c5ccccc5OC(F)(F)F)c4n3)cc2[nH]1 [Example 93]
- IC50 (AURKB (Aurora B) enzyme): < 20 nM
- IC50 (Recombinant Src enzyme): > 1000 nM

SMILES: CNS(=O)(=O)c1cccc(Cn2ccc3cnc(Nc4ccc5c(c4)CCC(=O)N5)nc32)c1 [Example 60]
- IC50 (AURKB (Aurora B) enzyme): < 20 nM
- IC50 (Recombinant Src enzyme): > 1000 nM
